In patent US12043621B2, “Small molecule inhibitors of Interleukin-4” (Trustees of Boston University, priority 2020, dated 2024) one finds EC50 data, which are given here for one compound.

The subject of assay [1] is pSTAT6 in Ramos cells. Nature of the assay: Reduction of pSTAT6 in Ramos cells (Western blot). It counts as cell-based. As to conditions: Homo sapiens; Ramos cells (type I receptor complex); read-out: EC50 of pSTAT6 inhibition. The protocol:
Ramos cells were used as cell-based model of IL-4 inhibition. Ramos cells express type I receptor complex (IL-4Rα and γc)—they were used to confirm that the lead compound D9 (compound 1 in Table 3) inhibits IL-4 signaling in this context as well.
The assay was run as described in Example 2 and 3 for THP-1 cells. Blotting was conducted for pSTAT6 and STAT6 and the percent of pSTAT6 calculated based on total STAT6. All conditions were run in triplicate. The results are depicted in FIGS. 22-23.
(In general: In western blotting, separated proteins are transferred to a membrane and probed.)

In assay [2] the test system is STAT-6 phosphorylation in THP-1 cells. Nature of the assay: THP-1 STAT-6/pSTAT-6 Western blot assay. It counts as cell-based. As to conditions: Homo sapiens, THP-1, THP-1 cells, IL-4 preincubated with compound, read-out: EC50 of reduction in pSTAT-6 levels. On the procedure:
THP-1 cells were maintained in RMPI-1640 with 10% heat-inactivated fetal bovine serum and 50 μM beta-mercaptoethanol. Cells used for assays were between passages 6 and 10. 10 ng/ml IL-4 was preincubated with experimental sample (vehicle, D9 etc) for 2 hours at 37° C. Solutions were then added to 2E6 THP-1 cells in 1 mL. THP-1 cells were incubated for 30 minutes in incubator at 37° C. 5% CO2. Cells were then spun down, lysed with 200 μL ice-cold RIPA buffer complete with phosphatase and protease inhibitors. Cell lysate was incubated on ice for 30 minutes and then stored at −20° C. until western blot analysis. Undiluted cell-lysate was run SDS-PAGE followed by transfer to membrane using Biorad equipment. Membranes were incubated with 1:1000 primary antibody overnight at 4° ° C. Membranes then incubated with 1:50,000 dilution secondary for 1 hour at RT. […] The brightness/contrast was adjusted in […] and the area under the curve of each lane was quantified.
THP-1 cells were maintained in RMPI-1640 with 10% heat-inactivated fetal bovine serum and 50 μM beta-mercaptoethanol. […] The brightness/contrast was adjusted in FIJI (FIGS. 15 and 16) and the area under the curve of each lane was quantified. The ratio of phosphorylated STAT6 to STAT6 was calculated and normalized to the amount of total STAT6. The data was plotted and analyzed using Graphpad Prism 8.

The target in assay [3] is T1, IL-4 (Homo sapiens, UniProt P05112).
T1 construct: purchased Acros Biosystems IL4-H4218; host or cells: HEK-293
T1 sequence (P05112 25-153): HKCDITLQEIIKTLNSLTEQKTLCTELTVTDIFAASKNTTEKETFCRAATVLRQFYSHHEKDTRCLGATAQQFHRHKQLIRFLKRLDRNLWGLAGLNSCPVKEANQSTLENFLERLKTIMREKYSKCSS
Nature of the assay: HEK-Blue IL-4/IL-13 cell-based reporter (SEAP) IL-4 inhibition assay. As to conditions: Example 2, quadruplicate; read-out: EC50 of IL-4 inhibition in HEK-Blue IL-4/IL-13 cells. The protocol:
HEK-Blue IL-4/IL-13 cells were purchased from Invivogen and maintained in DMEM complete with 10% fetal bovine serum, 10 μg/ml of blasticidin and 100 μg/ml of Zeocin, 100 μg/mL Normocin, and 100 U/mL-100 μg/mL Pen-Strep. Cells used for assays were between passages 12 and 18. […] HEK-Blue IL-4/IL-13 cells were trypsinized, spun down, and resuspended in DMEM with 10% heat-inactivated FBS, and 100 U/mL-100 μg/mL Pen-Strep at a concentration of 3.125E5/mL. 160 μL of the cell suspension was added to each well of a 96 well plate, avoiding the edges of the plate and equilibrated in an incubator for 1 hour. After 2 hours, 40 μL of the small molecule/IL-4 solution was added to each well. Each measurement performed in quadruplicate. Cells were incubated for 20 hours at 37° C./5% CO2. Quanti-Blue was prepared according to manufacture and 160 μL added to each well of a 96 well plate, avoiding edges. 40 μL of cell supernatant was added to each well and then incubated for 3 hours at 37° C. The optical density was then read at 650 nm with a Molecular Devices SpectraMax M5 Microplate Reader. Data was plotted and analyzed in GraphPad Prism 8.
HEK-Blue IL-4/IL-13 cells were purchased from Invivogen and maintained in DMEM complete with 10% fetal bovine serum, 10 μg/ml of blasticidin and 100 μg/ml of Zeocin, 100 μg/mL Normocin, and 100 U/mL-100 μg/mL Pen-Strep. Cells used for assays were between passages 12 and 18. Prior to screening small molecules, the SEAP production induced by IL-4 alone was tested in the cells (FIG. 13) and determined to be 0.3 ng/mL. The EC25 for the IL-4 induced SEAP production (0.1 ng/mL final well concentration) was chosen for running small molecule inhibition assays.
For screening small molecules, 25 µL of each molecule (FIG. 9) in DMEM with 4% DMSO was added to 25 μL of 1 ng/ml IL-4 in DMEM and incubated for 2 hours at 37° C. HEK-Blue IL-4/IL-13 cells were trypsinized, spun down, and resuspended in DMEM with 10% heat-inactivated FBS, and 100 U/mL-100 μg/mL Pen-Strep at a concentration of 3.125E5/mL. 160 μL of the cell suspension was added to each well of a 96 well plate, avoiding the edges of the plate and equilibrated in an incubator for 1 hour. After 2 hours, 40 μL of the small molecule/IL-4 solution was added to each well. Each measurement was performed in […]. Cells were incubated for 20 hours at 37° C./5% CO2. Quanti-Blue was prepared according to manufacture and 160 μL added to each well of a 96 well plate, avoiding edges. 40 μL of cell supernatant was added to each well and then incubated for 3 hours at 37° C. The optical density was then read at 650 nm with a Molecular Devices SpectraMax M5 Microplate Reader. Data was plotted and analyzed in GraphPad Prism 8.
HEK-Blue IL-4/IL-13 cells used to screen analogs of compound 52 from ACS Chemical Biology paper (also referred to herein as D9). Assay was run as described in Examples 2 and 3. All compounds were screened at 10 μM, 1 μM, and 250 nM in quadruplicate. The results are depicted in FIGS. 17-21.

For `N#Cc1c(-c2ccc(O)c(O)c2)cc(-c2ccc(F)cc2)nc1N` [Compound D9], the figures for the EC50 in assay [1], in assay [2] and in assay [3] were 6.12 µM, 3.1 µM and 5.73 µM, respectively.
